Experimental data published in patent US9504676B2, “Molecules inhibiting a metabolic pathway involving the Syk protein tyrosine kinase and method for identifying said molecules” (CENTRE NATIONAL DE LA RECHERCHE SCIENTIFIQUE, priority 2008, dated 2016).

Test system: BALB/c mice
Assay: Passive cutaneous anaphylaxis (PCA)
Type: in vivo
Parameters: unit not given here
Conditions: local intradermal injection in the ear
Procedure: Finally, to extend these observations to mast cell functions in vivo, the inventors tested the effects of C-13 on passive systemic (PSA) and cutaneous anaphylaxis (PCA) induced in BALB/c mice by administering DNP-specific IgE molecules followed by intravenous stimulation with DNP-KLH hapten. […] The intensity of systemic anaphylaxis was determined by measuring both the drop in body temperature and the increase in vascular permeability following antigen administration.
• 1) Chemical products and antibodies. A chemical bank of 3000 molecules (a varied subset) was acquired from ChemBridge, Inc. (San Diego, Calif.). Stocks of solutions of small molecules were prepared at a rate of 10 mM in DMSO (dimethylsulphoxide), except for C-13 (methyl 2-{5-[(3-benzyl-4-oxo-2-thioxo-1,3-thiazolidin-5-ylidene)methyl]-2-furyl}benzoate, ChemBridge ID No. 6197026) prepared in DMF (dimethylformamide). Unless specified otherwise, all the reagents were supplied by Sigma. […] The binding of G4G11 with Syk was assessed by adding the 9E10 monoclonal antibody conjugated with HRP detecting the amino acid sequence EQKLISEEDLN of human c-myc protein located at the C-terminal end of the scFv fragment. To generate Syk mutants, targeted mutagenesis was used on GST:Syk 6-242 protein and the binding of G4G11 with the mutants was assessed in the presence of 5 μM of C-13. • 3) Cells, culture conditions and functional tests. […]

`COC(=O)c1ccccc1-c1ccc(/C=C2/SC(=S)N(Cc3ccccc3)C2=O)o1` [Molecule C-13, methyl 2-{5-[(3-benzyl-4-oxo-2-thioxo-1,3-thiazolidin-5-ylidene)methyl]-2-furyl}benzoate] was tested, and the “estimated IC50, inhibitory effect on PCA” value was ~25.
